PMC13453949 (Journal of Advanced Research, 2025)
Values after ≈ are worked out from the molar mass of the structure shown. “Also recorded” adds a separate entry of the source. Like-named read-outs stand apart in the source and are kept apart here.

Key:
C. albicans [1] = experiment: Antifungal activity test of the 17 candidate compounds against C. albicans; format: cell-based, Candida albicans; details: tested at 12 h, 24 h and 36 h
C. albicans [2] = experiment: microbe, parasite or virus in culture; format: cell-based, Candida albicans; details: for MIC: Candida albicans, read-out: Minimum inhibitory concentration (MIC); for Fungal recovery after treatment: after 36 h of treatment
293 T cells = details: 24 h; for Cell survival rate: 128 μg/mL (highest tested)
Raw264.7 cells = details: 24 h; for Cell survival rate: 128 μg/mL (highest tested)
[3] = tested on: KB (human oral epidermoid carcinoma cells); details: 24 h; for Cell survival rate: 128 μg/mL (highest tested)
C. albicans [4] = format: cell-based, Candida albicans; details: α-hederin 32 μg/mL; vs untreated control (CK)
C. albicans biofilm = experiment: Biofilm formation, total biofilm biomass by crystal violet staining; format: cell-based; details: Candida albicans, 24 h, read-out: Inhibition of early biofilm formation
[5] = tested on: C. albicans mature biofilm; experiment: Mature biofilm, metabolic activity by XTT reduction; format: cell-based; details: Candida albicans, 24 h, read-out: Inhibition rate of mature biofilms
[6] = tested on: C. albicans hyphal formation; format: cell-based, Candida albicans; details: RPMI-1640 + 10 % FBS, 24 h
[7] = tested on: C. albicans cell surface hydrophobicity; format: cell-based, Candida albicans; details: 128 μg/mL
[8] = tested on: ergosterol content in C. albicans; experiment: Ergosterol content determination; format: cell-based, Candida albicans; details: 16 μL/mL, compared to untreated control (CK)
C. albicans [9] = experiment: Checkerboard dilution, fractional inhibitory concentration index; format: cell-based, Candida albicans
C. albicans [10] = experiment: Murine oral candidiasis model; format: in vivo, BALB/c mice; details: for Hemoglobin (HGB) level / Platelet (PLT) counts / White blood cell count (WBC): relative to Can group
[11] = threshold concentration 1024 μg/mL

In the case of `CC(C)=CCC[C@](C)(O[C@@H]1O[C@H](CO[C@@H]2O[C@@H](CO)[C@H](O)[C@H]2O[C@@H]2OC[C@@H](O)[C@H](O)[C@H]2O)[C@@H](O)[C@H](O)[C@H]1O)[C@H]1CC[C@]2(C)[C@@H]1[C@H](O)C[C@@H]1[C@@]3(C)CC[C@H](O[C@@H]4O[C@H](CO)[C@@H](O)[C@H](O)[C@H]4O[C@@H]4O[C@H](CO)[C@@H](O)[C@H](O)[C@H]4O)C(C)(C)[C@@H]3CC[C@]12C` [Ginsenoside Ra2], the “Anti − C. albicans activity” value (C. albicans [1]; [11]) is reported as >1024 µg/mL.
In the case of `Oc1ccc2ccccc2c1N=Nc1ccc(N=Nc2ccccc2)cc1` [Sudam Ⅲ], the “Anti − C. albicans activity” value (C. albicans [1]; [11]) is reported as >1024 µg/mL.
Elemicin was tested, and the “Anti − C. albicans activity” value (C. albicans [1]) was <128 μL/mL, the “Anti − C. albicans activity” value (C. albicans [1]; [11]) was “below 128 μg/mL” and the “Minimum inhibitory concentration (MIC)” value (C. albicans [2]; C. albicans CMCC(F)98001, YEPD, 37 °C, 24 h and 36 h) was 16 μL/mL. The “Inhibition of C. albicans growth” value (C. albicans [2]; at concentrations exceeding 0.5 μL/mL) was 50 % −70, the “Concentration with significant toxicity” value (293 T cells) was “higher than 8 μL/mL” and the “Concentration with significant toxicity” value (Raw264.7 cells) was “higher than 8 μL/mL”. The “Concentration with significant toxicity” value [3] was “higher than 8 μL/mL”.
With Triptofordin the “Anti − C. albicans activity” value (C. albicans [1]; [11]) was >1024 µg/mL.
With Evodiamine the “Anti − C. albicans activity” value (C. albicans [1]; [11]) was >1024 µg/mL.
In the case of `C=C(C)C(O)COc1c2occc2cc2ccc(=O)oc12` (centres unmarked) [Isogosferol], the “Anti − C. albicans activity” value (C. albicans [1]; [11]) is reported as >1024 µg/mL.
For Strictosamide, the “Anti − C. albicans activity” value (C. albicans [1]; [11]) was >1024 µg/mL.
`COc1cc2ccc(=O)oc2cc1O` [Scopoletol] was tested, and the “Anti − C. albicans activity” value (C. albicans [1]; [11]) was >1024 µg/mL.
In the case of `C[C@]12CCC[C@@]3(COC1=O)[C@@H]1CC[C@@H]4C[C@@]1(CC[C@@H]32)C[C@@]4(C)O` [Hypodiolide A], the “Anti − C. albicans activity” value (C. albicans [1]; [11]) is reported as >1024 µg/mL.
For `C[C@@H]1O[C@@H](O[C@H]2[C@H](O[C@H]3CC[C@@]4(C)[C@@H](CC[C@]5(C)[C@@H]4CC=C4[C@@H]6CC(C)(C)CC[C@]6(C(=O)O)CC[C@]45C)[C@]3(C)CO)OC[C@H](O)[C@@H]2O)[C@H](O)[C@H](O)[C@H]1O` [α-Hederin], the “Anti − C. albicans activity” value (C. albicans [1]; [11]) was “below 128 μg/mL”, the C. albicans growth (C. albicans [2]; 32 μg/mL) was “completely inhibited” and the MIC (C. albicans [2]) was 32 µg/mL (≈ 42.6 µM). The “Fungal recovery after treatment” value (C. albicans [2]) was “no fungal recovery observed”, the “Growth inhibition of C. albicans” value (C. albicans [2]; at concentrations above 8 μg/mL within 24 h) was 50% and the “Internal ultrastructure (TEM)” value (C. albicans [4]) was “severe cytoplasmic content loss and vacuolization, thinning and irregularity of cell walls/membranes and membrane discontinuities”. It also gave an inhibition at 32 µg/mL (C. albicans biofilm) of 55%, an inhibition at 256 µg/mL (C. albicans biofilm) of 75% and an inhibition at 128 µg/mL [5] of 20%. For the same compound, the Hyphal formation ([6]; 128 μg/mL) was “partial inhibition”, the Hyphal formation ([6]; 256 μg/mL) was “completely inhibit” and the “Reduction of cell surface hydrophobicity (CSH)” value [7] was 85%. For the same compound, the “Reduction of ergosterol content” value [8] was 90%, the “Concentration in the combination showing additive effect” value (C. albicans [9]; checkerboard, fluconazole plus α-hederin) was 16 µg/mL and the “Hemoglobin (HGB) level” value (C. albicans [10]; 32 μg/mL) was “restored”. For the same compound, the “Platelet (PLT) counts” value (C. albicans [10]; 32 μg/mL) was “normalized”, the “White blood cell count (WBC)” value (C. albicans [10]; 32 μg/mL) was “restored” and the “C. albicans colony count on tongue” value (C. albicans [10]; 128 μg/mL in drinking water, 5 days (128Hed)) was “no colonies were detected”. The “Hemoglobin (HGB) level” value (C. albicans [10]; 128 μg/mL) was “restored”, the “Platelet (PLT) counts” value (C. albicans [10]; 128 μg/mL) was “normalized” and the “White blood cell count (WBC)” value (C. albicans [10]; 128 μg/mL) was “restored”. The Body weight change (C. albicans [10]; mouse, in vivo) was “rebound in body weight; also recorded: slowest initial weight loss, followed by a consistent increase”, the “Fungal colonization of tongue (PAS staining)” value (C. albicans [10]; mouse, in vivo) was “markedly reduced fungal colonization” and the “Fungal load on tongue (colony counts)” value (C. albicans [10]; α-hederin-treated group, dose not stated) was “significant decrease in fungal load”. The Cell survival rate (293 T cells) was “above 80%”, the Cell survival rate (Raw264.7 cells) was “above 80%” and the Cell survival rate [3] was “above 80%”.
In the case of `OC(Cn1cncn1)(Cn1cncn1)c1ccc(F)cc1F` [Fluconazole, reference compound], the “Fungal growth at highest concentration” value (C. albicans [2]; 128 μg/mL, after 24 h) is reported as “persistent fungal growth”, the MIC (C. albicans [2]) is reported as > 128 µg/mL and the “Fungal recovery after treatment” value (C. albicans [2]) is reported as “regrowth”. For the same compound, the “Internal ultrastructure (TEM)” value (C. albicans [4]) was “no comparable ultrastructural damage”, the inhibition at 256 µg/mL (C. albicans biofilm) was 57% and the inhibition at 128 µg/mL [5] was 17%. For the same compound, the Hyphal formation ([6]; 256 μg/mL) was “failed to achieve complete suppression”, the “Concentration reducing hyphal formation” value [6] was > 32 µg/mL and the “Reduction of ergosterol content” value [8] was 45%. The “Concentration in the combination showing additive effect” value (C. albicans [9]) was 1 µg/mL, the “Hemoglobin (HGB) level” value (C. albicans [10]; 128 μg/mL) was “restored” and the “Platelet (PLT) counts” value (C. albicans [10]; 128 μg/mL) was “normalized”. For the same compound, the “White blood cell count (WBC)” value (C. albicans [10]; 128 μg/mL) was “restored”, the Body weight change (C. albicans [10]; mouse, in vivo) was “rebound in body weight” and the Cell survival rate (293 T cells) was “above 80%”. For the same compound, the Cell survival rate (Raw264.7 cells) was “above 80%” and the Cell survival rate [3] was “above 80%”.
